Results on 12 compounds are retold here after PubChem BioAssay (NCI).

Some test systems named below: K-562 leukemia; KM12 colon; MALME-3M melanoma; MOLT-4 leukemia; OVCAR-4 ovarian; OVCAR-5 ovarian; RXF 393 renal; SW-620 colon; UACC-62 melanoma; UO-31 renal.
Holding throughout (test): NCI-60 cell line screen, 48 h

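48-hour exposure; five concentrations; linearly interpolated endpoints. GI50: concentration for 50% inhibition of growth. TGI marks complete inhibition of growth.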

Consider `C1=Nc2ccccc2Cn2nncc21`, for which the TGI in the assay with K-562 leukemia, in the assay with KM12 colon, in the assay on MALME-3M melanoma, in the assay on MOLT-4 leukemia, in the assay with OVCAR-4 ovarian and in the assay with OVCAR-5 ovarian was > 100 µM each time. Further, the TGI in the assay on RXF 393 renal is > 100 µM; in the assay with SW-620 colon, > 100 µM; with UACC-62 melanoma, 55.3 µM; with UO-31 renal, > 100 µM.

`OC(c1ccccc1)C1CC2C=CC1C2` (stereo not given): the TGI in the assay on K-562 leukemia, in the assay on KM12 colon, with MALME-3M melanoma, with MOLT-4 leukemia, in the assay on OVCAR-4 ovarian and with OVCAR-5 ovarian was > 100 µM throughout. The TGI in the assay with RXF 393 renal, with SW-620 colon, with UACC-62 melanoma and in the assay with UO-31 renal was > 100 µM each time.

Turning to `O=c1ccc2c(Cl)cccc2o1`, the TGI in the assay with K-562 leukemia, in the assay with KM12 colon, in the assay with MALME-3M melanoma, with MOLT-4 leukemia, in the assay on OVCAR-4 ovarian and in the assay on OVCAR-5 ovarian was > 100 µM throughout. For the same compound, the TGI in the assay with RXF 393 renal, in the assay with SW-620 colon, in the assay on UACC-62 melanoma and in the assay on UO-31 renal was > 100 µM throughout.

In the case of `CCN(CC)CCCC(C)Nc1c2ccc(Cl)cc2nc2cc(Cl)ccc12` (stereo not given), the TGI with K-562 leukemia amounted to 5.05 µM; with KM12 colon, 9.29 µM; in the assay on MALME-3M melanoma, 25.5 µM; in the assay on MOLT-4 leukemia it was 5.31 µM; in the assay with OVCAR-4 ovarian it was 9.68 µM; with OVCAR-5 ovarian, 21.2 µM. Also, the TGI in the assay with RXF 393 renal stood at 13.2 µM; with SW-620 colon, 12.5 µM; in the assay with UACC-62 melanoma, 16.1 µM; in the assay on UO-31 renal it was 11.5 µM.

As to `Clc1ccc(C2CC(c3cccc(Nc4ccncc4)c3)=NN2c2ccccc2)cc1` (stereo not given), the GI50 is 1.67 µM in the assay on K-562 leukemia; 1.7 µM in the assay with KM12 colon; 1.58 µM with MALME-3M melanoma; 1.83 µM with MOLT-4 leukemia; 1.64 µM with OVCAR-4 ovarian; 1.66 µM in the assay with OVCAR-5 ovarian. Moreover, the GI50 is 1.67 µM in the assay with RXF 393 renal, 1.67 µM in the assay with SW-620 colon, 1.71 µM in the assay with UACC-62 melanoma and 1.47 µM with UO-31 renal. The TGI was determined as 5.45 µM in the assay on K-562 leukemia; 3.28 µM with KM12 colon; 3.14 µM in the assay with MALME-3M melanoma; 4.32 µM with MOLT-4 leukemia; 3.17 µM in the assay with OVCAR-4 ovarian; 3.07 µM in the assay on OVCAR-5 ovarian. The TGI was determined as 3.08 µM in the assay with RXF 393 renal, 3.34 µM in the assay on SW-620 colon, 3.13 µM with UACC-62 melanoma and 2.79 µM with UO-31 renal.

With `CC(C(=O)NCCNC(=O)CCCC(=O)N(C)O)C(=O)NCCNC(=O)CCCC(=O)N(C)O`, the TGI in the assay with K-562 leukemia, in the assay with KM12 colon, with MALME-3M melanoma, with MOLT-4 leukemia, with OVCAR-4 ovarian and with OVCAR-5 ovarian was > 100 µM each time. For the same compound, the TGI in the assay with RXF 393 renal, with SW-620 colon, in the assay on UACC-62 melanoma and with UO-31 renal was > 100 µM each time.

As for `COc1ccc(N2C(=O)C(=O)N(C)C2=O)c2ccccc12`, the TGI with K-562 leukemia, in the assay on KM12 colon, with MALME-3M melanoma, with MOLT-4 leukemia, with OVCAR-4 ovarian and in the assay with OVCAR-5 ovarian was > 10 µM throughout. Further, the TGI in the assay with RXF 393 renal, in the assay on SW-620 colon, in the assay with UACC-62 melanoma and in the assay on UO-31 renal was > 10 µM throughout.

Regarding `CSC1=C(SC)C(=O)c2cn(C)c(=O)cc2C1=O`, the TGI in the assay with K-562 leukemia stood at 0.424 µM; in the assay on KM12 colon, 48.3 µM; in the assay with MALME-3M melanoma, 5.41 µM; in the assay with MOLT-4 leukemia, 3.52 µM; in the assay on OVCAR-4 ovarian, 3.74 µM; in the assay on OVCAR-5 ovarian it was 35.2 µM. In addition, the TGI was 3.43 µM in the assay with RXF 393 renal, 2.58 µM in the assay on SW-620 colon, 7.21 µM in the assay on UACC-62 melanoma and 3.13 µM in the assay on UO-31 renal.

`Fc1ccc(Nc2ncc(-c3cc(F)c(Cl)cc3Cl)s2)cc1Cl`: the GI50 with K-562 leukemia was 3.46 µM; in the assay with KM12 colon, 2.69 µM; in the assay with MALME-3M melanoma it was 14 µM; with MOLT-4 leukemia it was 5.46 µM; in the assay on OVCAR-4 ovarian it was 26.5 µM; with OVCAR-5 ovarian, 15.8 µM. Also, the GI50 is 6.67 µM in the assay on RXF 393 renal, 5.47 µM in the assay on SW-620 colon, 8.41 µM in the assay on UACC-62 melanoma and 17.1 µM in the assay on UO-31 renal. Besides, the TGI in the assay with K-562 leukemia is 15.5 µM; with KM12 colon, 13.3 µM; in the assay with MALME-3M melanoma, 31.2 µM; with MOLT-4 leukemia, 18.6 µM; in the assay on OVCAR-4 ovarian, > 100 µM; in the assay with OVCAR-5 ovarian it was 30.5 µM. For the same compound, the TGI is 24.3 µM in the assay with RXF 393 renal, 24.9 µM in the assay on SW-620 colon, 26.5 µM in the assay with UACC-62 melanoma and 42.1 µM with UO-31 renal.

For `CC1(CO)C(O)CCC2(C)C1C(O)CC1CC3CC12CCC3(O)CO` (stereo not given), the TGI is > 225 µM in the assay on K-562 leukemia; > 225 µM with KM12 colon; > 225 µM in the assay on MALME-3M melanoma; > 141 µM in the assay on MOLT-4 leukemia; > 225 µM in the assay on OVCAR-4 ovarian; > 225 µM in the assay with OVCAR-5 ovarian. The TGI in the assay with RXF 393 renal, with SW-620 colon, in the assay with UACC-62 melanoma and with UO-31 renal was > 225 µM each time.

For `COC1=CC(=O)c2c(c(COC(C)=O)cn2C)C1=O`, the TGI with K-562 leukemia was 0.707 µM; with KM12 colon it was 0.763 µM; with MALME-3M melanoma, 0.117 µM; with MOLT-4 leukemia it was 0.653 µM; in the assay on OVCAR-4 ovarian it was 1.04 µM; in the assay with OVCAR-5 ovarian, 0.0689 µM. Moreover, the TGI in the assay on RXF 393 renal came out at 0.309 µM; with SW-620 colon, 0.193 µM; in the assay with UACC-62 melanoma, 0.283 µM; with UO-31 renal it was 0.551 µM.

On to `CC(C)NC(=O)OCc1nnn2c1CCC2`, for which the TGI in the assay on K-562 leukemia, in the assay on KM12 colon, in the assay on MALME-3M melanoma, with MOLT-4 leukemia, in the assay on OVCAR-4 ovarian and in the assay on OVCAR-5 ovarian was > 100 µM throughout. Further, the TGI in the assay with RXF 393 renal, in the assay with SW-620 colon, in the assay on UACC-62 melanoma and in the assay on UO-31 renal was > 100 µM in each case.
